Measurements reported in patent publication US8853418B2, “Cyclopentylpyrazoles as N-type calcium channel blockers” (Janssen Pharmaceutica NV, priority 2012, dated 2014).
Where two headings read alike, the source gives them in different places.

Assays:
N-type calcium channel = N-type calcium channel (Homo sapiens, UniProt Q00975); test: Automated Electrophysiology Assay (QPatch-HT whole-cell patch clamp; low- and high-frequency stimulation); type: cell-based
[1] = target: N-type calcium channel (α1B (Cav2.2), β3 and α2δ subunits) (Homo sapiens, UniProt Q00975); test: Functional Assay: Antagonism of N-Type Calcium Channel (FDSS calcium mobilization, KCl depolarization); type: cell-based; conditions: for IC50: HEK cell line, 50 mM KCl depolarization, six-point concentration-response, read-out: FDSS IC50
Procedure, shortened: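 HEK cells stably co-expressing α1B (Cav2.2), β3 and α2δ were loaded with calcium dye, then given compound with fluorescence recorded for 5 min before 50 mM KCl depolarisation and 3 min more reading. IC50 came from six-point curves of maximal fluorescence, normalised to KCl maximum and buffer minimum.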

[2] = test system: Complete Freund's Adjuvant (CFA)-Induced Hyperalgesia; test: Complete Freund's Adjuvant (CFA)-Induced Hyperalgesia, radiant heat; type: in vivo, Sprague-Dawley rats; conditions: rat CFA radiant heat model of inflammatory pain; FIG. 1
[3] = high-frequency stimulation (15th pulse), read-out: QPatch at High Frequency % Inhibition
[4] = low frequency, read-out: QPatch at Low Frequency % Inhibition

Chain of N-type calcium channel (Q00975 whole entry): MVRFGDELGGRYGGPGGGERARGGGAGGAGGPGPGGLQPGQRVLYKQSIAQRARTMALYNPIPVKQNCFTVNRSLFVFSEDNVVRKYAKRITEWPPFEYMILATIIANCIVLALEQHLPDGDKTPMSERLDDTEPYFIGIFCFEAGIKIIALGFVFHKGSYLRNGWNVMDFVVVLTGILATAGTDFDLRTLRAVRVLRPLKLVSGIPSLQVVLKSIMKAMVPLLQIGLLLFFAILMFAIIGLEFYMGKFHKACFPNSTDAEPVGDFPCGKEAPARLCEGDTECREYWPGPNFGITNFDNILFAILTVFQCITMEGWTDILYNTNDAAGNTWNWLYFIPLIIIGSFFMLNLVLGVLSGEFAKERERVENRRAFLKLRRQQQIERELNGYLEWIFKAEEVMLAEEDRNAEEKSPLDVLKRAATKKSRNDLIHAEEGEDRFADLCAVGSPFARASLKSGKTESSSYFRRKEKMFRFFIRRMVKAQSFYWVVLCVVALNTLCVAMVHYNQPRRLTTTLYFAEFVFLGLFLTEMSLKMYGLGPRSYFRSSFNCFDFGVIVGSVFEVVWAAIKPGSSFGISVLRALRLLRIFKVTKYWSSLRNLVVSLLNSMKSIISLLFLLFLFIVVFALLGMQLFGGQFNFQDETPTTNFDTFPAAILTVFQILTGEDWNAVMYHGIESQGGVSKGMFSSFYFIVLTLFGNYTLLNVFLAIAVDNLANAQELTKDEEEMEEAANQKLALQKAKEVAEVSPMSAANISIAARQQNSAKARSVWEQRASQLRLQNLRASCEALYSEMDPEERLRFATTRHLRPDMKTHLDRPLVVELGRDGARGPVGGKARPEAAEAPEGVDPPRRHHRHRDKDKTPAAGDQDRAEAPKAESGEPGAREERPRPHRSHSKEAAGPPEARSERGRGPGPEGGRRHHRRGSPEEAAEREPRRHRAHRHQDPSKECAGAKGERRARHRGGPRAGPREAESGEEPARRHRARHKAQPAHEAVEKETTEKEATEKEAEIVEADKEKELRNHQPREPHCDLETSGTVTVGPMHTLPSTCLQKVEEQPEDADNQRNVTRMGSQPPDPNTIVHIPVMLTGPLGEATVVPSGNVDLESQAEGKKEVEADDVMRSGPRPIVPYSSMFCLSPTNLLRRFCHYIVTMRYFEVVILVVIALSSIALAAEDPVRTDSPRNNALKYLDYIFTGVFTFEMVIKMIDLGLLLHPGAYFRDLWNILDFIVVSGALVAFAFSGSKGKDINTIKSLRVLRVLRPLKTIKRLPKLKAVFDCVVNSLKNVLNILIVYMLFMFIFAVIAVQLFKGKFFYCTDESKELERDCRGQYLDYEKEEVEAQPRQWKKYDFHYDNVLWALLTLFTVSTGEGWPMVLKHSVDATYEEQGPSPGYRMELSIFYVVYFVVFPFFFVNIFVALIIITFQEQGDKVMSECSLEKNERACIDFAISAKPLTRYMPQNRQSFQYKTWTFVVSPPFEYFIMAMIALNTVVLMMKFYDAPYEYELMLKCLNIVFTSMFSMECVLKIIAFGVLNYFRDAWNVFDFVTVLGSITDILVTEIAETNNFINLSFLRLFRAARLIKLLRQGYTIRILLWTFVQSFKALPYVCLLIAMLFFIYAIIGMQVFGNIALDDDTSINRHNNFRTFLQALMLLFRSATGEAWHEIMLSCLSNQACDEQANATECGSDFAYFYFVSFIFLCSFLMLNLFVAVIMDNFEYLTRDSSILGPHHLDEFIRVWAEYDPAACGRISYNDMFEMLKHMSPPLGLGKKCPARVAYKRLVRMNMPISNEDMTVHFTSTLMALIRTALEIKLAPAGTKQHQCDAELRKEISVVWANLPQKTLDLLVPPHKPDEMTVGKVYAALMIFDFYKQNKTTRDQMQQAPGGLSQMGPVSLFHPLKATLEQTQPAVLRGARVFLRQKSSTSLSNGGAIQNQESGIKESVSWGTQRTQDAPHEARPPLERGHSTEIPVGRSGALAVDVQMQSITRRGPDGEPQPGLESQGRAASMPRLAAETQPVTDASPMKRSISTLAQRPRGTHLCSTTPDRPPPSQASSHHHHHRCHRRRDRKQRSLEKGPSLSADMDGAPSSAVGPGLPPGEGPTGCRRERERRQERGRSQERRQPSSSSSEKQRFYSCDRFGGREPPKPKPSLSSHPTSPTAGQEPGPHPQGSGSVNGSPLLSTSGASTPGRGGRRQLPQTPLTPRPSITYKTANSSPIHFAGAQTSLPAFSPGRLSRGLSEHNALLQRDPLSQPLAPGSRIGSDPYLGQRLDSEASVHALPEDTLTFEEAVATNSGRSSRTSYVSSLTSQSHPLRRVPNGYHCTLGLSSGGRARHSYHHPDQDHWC
Chain of N-type calcium channel (P54284 whole entry partner): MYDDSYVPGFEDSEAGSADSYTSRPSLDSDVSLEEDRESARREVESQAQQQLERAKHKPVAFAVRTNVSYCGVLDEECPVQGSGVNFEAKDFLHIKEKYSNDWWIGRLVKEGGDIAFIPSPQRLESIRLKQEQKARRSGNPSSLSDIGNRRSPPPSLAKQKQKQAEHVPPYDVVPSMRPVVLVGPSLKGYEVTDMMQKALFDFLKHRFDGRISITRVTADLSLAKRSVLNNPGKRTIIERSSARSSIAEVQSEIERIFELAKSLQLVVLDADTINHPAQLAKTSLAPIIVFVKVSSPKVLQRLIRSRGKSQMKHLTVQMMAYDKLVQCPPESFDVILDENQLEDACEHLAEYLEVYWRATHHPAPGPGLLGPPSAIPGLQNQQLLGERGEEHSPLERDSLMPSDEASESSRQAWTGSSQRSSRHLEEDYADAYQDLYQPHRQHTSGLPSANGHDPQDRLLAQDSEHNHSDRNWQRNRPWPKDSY
Chain of N-type calcium channel (P54289 25-946 partner limits assumed): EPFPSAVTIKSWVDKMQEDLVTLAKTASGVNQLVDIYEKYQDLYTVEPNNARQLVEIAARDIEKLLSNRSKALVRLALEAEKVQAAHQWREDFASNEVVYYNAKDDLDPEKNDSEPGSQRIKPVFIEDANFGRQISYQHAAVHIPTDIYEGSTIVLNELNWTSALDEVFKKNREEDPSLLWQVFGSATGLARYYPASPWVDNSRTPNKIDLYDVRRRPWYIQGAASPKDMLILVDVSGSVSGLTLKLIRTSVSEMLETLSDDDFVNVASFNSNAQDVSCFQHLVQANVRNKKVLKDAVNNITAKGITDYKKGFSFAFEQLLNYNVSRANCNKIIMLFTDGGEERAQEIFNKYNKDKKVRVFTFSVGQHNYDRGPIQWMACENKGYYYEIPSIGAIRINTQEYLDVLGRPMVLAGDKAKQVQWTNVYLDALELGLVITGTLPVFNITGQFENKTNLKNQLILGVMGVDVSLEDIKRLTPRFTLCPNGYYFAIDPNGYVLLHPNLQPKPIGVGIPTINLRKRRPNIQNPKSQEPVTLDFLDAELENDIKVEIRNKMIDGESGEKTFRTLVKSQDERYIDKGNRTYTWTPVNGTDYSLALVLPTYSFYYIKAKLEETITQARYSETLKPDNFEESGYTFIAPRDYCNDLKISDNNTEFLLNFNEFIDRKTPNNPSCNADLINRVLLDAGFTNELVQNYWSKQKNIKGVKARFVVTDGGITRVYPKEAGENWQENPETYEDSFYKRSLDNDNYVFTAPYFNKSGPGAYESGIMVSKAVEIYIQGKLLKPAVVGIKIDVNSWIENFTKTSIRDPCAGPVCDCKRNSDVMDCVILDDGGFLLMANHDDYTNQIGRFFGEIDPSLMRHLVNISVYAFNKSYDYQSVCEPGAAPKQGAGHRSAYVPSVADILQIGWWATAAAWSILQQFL
Chain of N-type calcium channel (P54289 947-1103 partner limits assumed): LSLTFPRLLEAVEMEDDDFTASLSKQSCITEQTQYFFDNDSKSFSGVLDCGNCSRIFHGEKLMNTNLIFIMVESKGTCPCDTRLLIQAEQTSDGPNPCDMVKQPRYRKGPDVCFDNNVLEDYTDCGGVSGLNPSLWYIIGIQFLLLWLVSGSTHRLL
Chain of N-type calcium channel (α1B (Cav2.2), β3 and α2δ subunits) (Q00975 whole entry): as the sequence (Q00975 whole entry) above
Chain of N-type calcium channel (α1B (Cav2.2), β3 and α2δ subunits) (P54284 whole entry partner): as the sequence (P54284 whole entry partner) above
Chain of N-type calcium channel (α1B (Cav2.2), β3 and α2δ subunits) (P54289 25-946 partner limits assumed): as the sequence (P54289 25-946 partner limits assumed) above
Chain of N-type calcium channel (α1B (Cav2.2), β3 and α2δ subunits) (P54289 947-1103 partner limits assumed): as the sequence (P54289 947-1103 partner limits assumed) above

Row | Compound | inhibition at 0.1 µM (N-type calcium channel; [3]) [%] | inhibition at 0.1 µM (N-type calcium channel; [4]) [%] | inhibition at 0.33 µM [1] [%] | IC50 [1] [nM] | inhibition at 1 µM (N-type calcium channel; [3]) [%] | inhibition at 1 µM (N-type calcium channel; [4]) [%] | antihyperalgesic effect [2]
1 | COc1ccccc1-n1nc2c(c1-c1ccc(Cl)cc1)CC1(C2)OCC(C)(C)CO1 [Compound 71, 3-(4-chlorophenyl)-2-(2-methoxyphenyl)-5′,5′-dimethyl-2,6-dihydro-4H-spiro[cyclopenta[c]pyrazole-5,2′-[1,3]dioxane]] | 37 | 21 | 89 | 13 |  |  | antihyperalgesic effect
2 | COc1ccccc1-n1nc2c(c1-c1ccc(C#N)cc1)C[C@H](n1cc(C(C)(C)C)nn1)C2 [Compound 130, 4-[(5S)-5-(4-tert-butyl-1H-1,2,3-triazol-1-yl)-2-(2-methoxyphenyl)-2,4,5,6-tetrahydrocyclopenta[c]pyrazol-3-yl]benzonitrile] |  |  | 92 | 50 | 57 | 39 | 
3 | CCc1ncn([C@@H]2Cc3nn(-c4ccccc4OC)c(-c4ccc(C#N)cc4)c3C2)c1CC [Compound 139, 4-[(5S)-5-(4,5-diethyl-1H-imidazol-1-yl)-2-(2-methoxyphenyl)-2,4,5,6-tetrahydrocyclopenta[c]pyrazol-3-yl]benzonitrile] |  |  | 87 | 37 | 66 | 72 | 

Now from value to molecule, other results behind:

Row | inhibition at 0.1 µM (N-type calcium channel; [3]) [%] | inhibition at 0.1 µM (N-type calcium channel; [4]) [%] | inhibition at 0.33 µM [1] [%] | IC50 [1] [nM] | inhibition at 1 µM (N-type calcium channel; [3]) [%] | inhibition at 1 µM (N-type calcium channel; [4]) [%] | Compound | antihyperalgesic effect [2]
4 |  |  | 88 | 43 | 73 | 68 | COc1ccccc1-n1nc2c(c1-c1ccc(C#N)cc1)C[C@H](n1cc(C3CCCC3)nn1)C2 [Compound 124, 4-[(5S)-5-(4-cyclopentyl-1H-1,2,3-triazol-1-yl)-2-(2-methoxyphenyl)-2,4,5,6-tetrahydrocyclopenta[c]pyrazol-3-yl]benzonitrile] | 
5 | 26 | 13 | 97 | 17 |  |  | COc1ccccc1-n1nc2c(c1-c1ccc(C#N)cc1)C[C@H](n1cc(CC(C)C)nn1)C2 [Compound 127, 4-{(5S)-2-(2-methoxyphenyl)-5-[4-(2-methylpropyl)-1H-1,2,3-triazol-1-yl]-2,4,5,6-tetrahydrocyclopenta[c]pyrazol-3-yl}benzonitrile] | 
